Measurements published in publication PMC12892976, “Alkylation-based optimization of antifungal FPPS inhibitors yields a potent, broad-spectrum lipophilic zoledronate derivative” (mBio, 2025).
In brackets after ≈: the same amount, converted by molar mass.

Experiments:
Aspergillus udagawae [1] = assay: checkerboard drug interaction (FICI, MICc); assay type: cell-based;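 also: simplified diagonal checkerboard screen pairing antifungals with FPPS inhibitors, FICI calculated using the Loewe additivity model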
Experimental: (§1) Drug interactions between antifungals and FPPS inhibitors were investigated using a simplified checkerboard diagonal screening method ([45]). […] FICIs were determined according to the Loewe additivity model ([17]).

Cryptococcus gattii = assay: checkerboard drug interaction (FICI, MICc); assay type: cell-based;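 also: simplified diagonal checkerboard screen pairing antifungals with FPPS inhibitors, FICI computed under the Loewe additivity model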
Experimental: as §1

Paraphyton cookei = assay: MIC broth microdilution (CLSI); assay type: cell-based; conditions: Paraphyton cookei R-639
Experimental: (§2) Antifungal susceptibility was determined by broth microdilution according to the CLSI guidelines described in M27-Ed4 ([16]).

Scedosporium apiospermum = assay: checkerboard drug interaction (FICI, MICc); assay type: cell-based;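 also: simplified diagonal checkerboard screen of antifungal plus FPPS inhibitor pairs, with FICI computed under the Loewe additivity model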
Experimental: as §1

Trichophyton soudanense [2] = assay: checkerboard drug interaction (FICI, MICc); assay type: cell-based;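 also: simplified diagonal checkerboard screen pairing antifungals with FPPS inhibitors, FICI computed under the Loewe additivity model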
Experimental: as §1

Aspergillus parafelis [3] = assay: MIC broth microdilution (CLSI); assay type: cell-based; conditions: Aspergillus parafelis DTO 341-F2
Experimental: as §2

Aspergillus udagawae [4] = assay: MIC broth microdilution (CLSI); assay type: cell-based; conditions: Aspergillus udagawae 8G81
Experimental: as §2

Aspergillus parafelis [5] = assay: checkerboard drug interaction (FICI, MICc);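 also: simplified diagonal checkerboard screen pairing antifungals with FPPS inhibitors, FICI calculated under the Loewe additivity model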
Experimental: as §1

Candida tropicalis = assay: checkerboard drug interaction (FICI, MICc); assay type: cell-based;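 also: simplified diagonal checkerboard screen of antifungal plus FPPS inhibitor combinations, with FICI computed by the Loewe additivity model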
Experimental: as §1

[6] = test system: 38 species of clinically relevant fungi; assay: MIC summary across 38 species of clinically relevant fungi; assay type: cell-based; conditions: 38 fungal species; read-out: GM MIC
Excerpt: […]; Table S3). […]. […] […]. […] […].

Trichophyton soudanense [7] = assay: MIC broth microdilution (CLSI); conditions: Trichophyton soudanense R-167
Experimental: as §2

Aspergillus niger = assay: checkerboard drug interaction (FICI, MICc); assay type: cell-based;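 also: simplified diagonal checkerboard screen pairing antifungals with FPPS inhibitors, FICI calculated under the Loewe additivity model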
Experimental: as §1

O=P(O)(O)C(O)(Cn1ccnc1)P(=O)(O)O [ZOL, zoledronate] was tested, and the FICI (Aspergillus udagawae [1]; 5FC:ZOL) was ≥4, the FICI (Aspergillus udagawae [1]; AMB:ZOL) was 0.63 and the FICI (Aspergillus udagawae [1]; CAS:ZOL) was 2. It also gave an FICI (Aspergillus udagawae [1]; FLC:ZOL) of 1.01, an FICI (Aspergillus udagawae [1]; ITR:ZOL) of 1 and an FICI (Aspergillus udagawae [1]; KET:ZOL) of 0.75. For the same compound, the FICI (Aspergillus udagawae [1]; VOR:ZOL) was 1, the “bisphosphonate MICc” value (Aspergillus udagawae [1]; ZOL with 5FC) was 512 and the “bisphosphonate MICc” value (Aspergillus udagawae [1]; ZOL with AMB) was 128. The “bisphosphonate MICc” value (Aspergillus udagawae [1]; ZOL with CAS) was 256, the “bisphosphonate MICc” value (Aspergillus udagawae [1]; ZOL with FLC) was 2 and the “bisphosphonate MICc” value (Aspergillus udagawae [1]; ZOL with ITR) was 128. The “bisphosphonate MICc” value (Aspergillus udagawae [1]; ZOL with KET) was 128, the “bisphosphonate MICc” value (Aspergillus udagawae [1]; ZOL with VOR) was 128 and the FICI (Cryptococcus gattii; 5FC:ZOL) was 1.25. The FICI (Cryptococcus gattii; AMB:ZOL) was 1.5, the FICI (Cryptococcus gattii; CAS:ZOL) was ≥4 and the FICI (Cryptococcus gattii; FLC:ZOL) was 0.38. It also gave an FICI (Cryptococcus gattii; ITR:ZOL) of 0.63, an FICI (Cryptococcus gattii; KET:ZOL) of 1.03 and an FICI (Cryptococcus gattii; VOR:ZOL) of 1.25. For the same compound, the “bisphosphonate MICc” value (Cryptococcus gattii; ZOL with 5FC) was 128, the “bisphosphonate MICc” value (Cryptococcus gattii; ZOL with AMB) was 64 and the “bisphosphonate MICc” value (Cryptococcus gattii; ZOL with CAS) was 256. The “bisphosphonate MICc” value (Cryptococcus gattii; ZOL with FLC) was 32, the “bisphosphonate MICc” value (Cryptococcus gattii; ZOL with ITR) was 16 and the “bisphosphonate MICc” value (Cryptococcus gattii; ZOL with KET) was 4. The “bisphosphonate MICc” value (Cryptococcus gattii; ZOL with VOR) was 32, the “MIC / MEC” value (Paraphyton cookei) was 128 µg/mL (≈ 470 µM) and the FICI (Scedosporium apiospermum; 5FC:ZOL) was 3. The FICI (Scedosporium apiospermum; AMB:ZOL) was 1.5, the FICI (Scedosporium apiospermum; CAS:ZOL) was ≥4 and the FICI (Scedosporium apiospermum; FLC:ZOL) was 0.63. The FICI (Scedosporium apiospermum; ITR:ZOL) was 0.56, the FICI (Scedosporium apiospermum; KET:ZOL) was 0.63 and the FICI (Scedosporium apiospermum; VOR:ZOL) was 1.5. For the same compound, the “bisphosphonate MICc” value (Scedosporium apiospermum; ZOL with 5FC) was 256, the “bisphosphonate MICc” value (Scedosporium apiospermum; ZOL with AMB) was 128 and the “bisphosphonate MICc” value (Scedosporium apiospermum; ZOL with CAS) was 512. For the same compound, the “bisphosphonate MICc” value (Scedosporium apiospermum; ZOL with FLC) was 32, the “bisphosphonate MICc” value (Scedosporium apiospermum; ZOL with ITR) was 16 and the “bisphosphonate MICc” value (Scedosporium apiospermum; ZOL with KET) was 32. The “bisphosphonate MICc” value (Scedosporium apiospermum; ZOL with VOR) was 128, the FICI (Trichophyton soudanense [2]; 5FC:ZOL) was 3 and the FICI (Trichophyton soudanense [2]; AMB:ZOL) was 3. For the same compound, the FICI (Trichophyton soudanense [2]; CAS:ZOL) was 3, the FICI (Trichophyton soudanense [2]; FLC:ZOL) was 0.75 and the FICI (Trichophyton soudanense [2]; ITR:ZOL) was 0.75. The FICI (Trichophyton soudanense [2]; KET:ZOL) was 0.38, the FICI (Trichophyton soudanense [2]; VOR:ZOL) was 0.49 and the “bisphosphonate MICc” value (Trichophyton soudanense [2]; ZOL with 5FC) was 128. The “bisphosphonate MICc” value (Trichophyton soudanense [2]; ZOL with AMB) was 128, the “bisphosphonate MICc” value (Trichophyton soudanense [2]; ZOL with CAS) was 64 and the “bisphosphonate MICc” value (Trichophyton soudanense [2]; ZOL with FLC) was 16. For the same compound, the “bisphosphonate MICc” value (Trichophyton soudanense [2]; ZOL with ITR) was 16, the “bisphosphonate MICc” value (Trichophyton soudanense [2]; ZOL with KET) was 8 and the “bisphosphonate MICc” value (Trichophyton soudanense [2]; ZOL with VOR) was 16. The “MIC / MEC” value (Aspergillus parafelis [3]) was >256 µg/mL, the “MIC / MEC” value (Aspergillus udagawae [4]) was 256 µg/mL (≈ 941 µM) and the FICI (Aspergillus parafelis [5]; 5FC:ZOL) was 2. For the same compound, the FICI (Aspergillus parafelis [5]; AMB:ZOL) was 1.13, the FICI (Aspergillus parafelis [5]; CAS:ZOL) was 0.56 and the FICI (Aspergillus parafelis [5]; FLC:ZOL) was 0.5. For the same compound, the FICI (Aspergillus parafelis [5]; ITR:ZOL) was 1.06, the FICI (Aspergillus parafelis [5]; KET:ZOL) was 2 and the FICI (Aspergillus parafelis [5]; VOR:ZOL) was 0.5. For the same compound, the “bisphosphonate MICc” value (Aspergillus parafelis [5]; ZOL with 5FC) was 512, the “bisphosphonate MICc” value (Aspergillus parafelis [5]; ZOL with AMB) was 64 and the “bisphosphonate MICc” value (Aspergillus parafelis [5]; ZOL with CAS) was 32. The “bisphosphonate MICc” value (Aspergillus parafelis [5]; ZOL with FLC) was 2, the “bisphosphonate MICc” value (Aspergillus parafelis [5]; ZOL with ITR) was 32 and the “bisphosphonate MICc” value (Aspergillus parafelis [5]; ZOL with KET) was 512. The “bisphosphonate MICc” value (Aspergillus parafelis [5]; ZOL with VOR) was 128, the FICI (Candida tropicalis; 5FC:ZOL) was 0.75 and the FICI (Candida tropicalis; AMB:ZOL) was 2. For the same compound, the FICI (Candida tropicalis; CAS:ZOL) was 0.4, the FICI (Candida tropicalis; FLC:ZOL) was 0.31 and the FICI (Candida tropicalis; ITR:ZOL) was 0.31. The FICI (Candida tropicalis; KET:ZOL) was 0.31, the FICI (Candida tropicalis; VOR:ZOL) was 0.49 and the “bisphosphonate MICc” value (Candida tropicalis; ZOL with 5FC) was 64. The “bisphosphonate MICc” value (Candida tropicalis; ZOL with AMB) was 128, the “bisphosphonate MICc” value (Candida tropicalis; ZOL with CAS) was 8 and the “bisphosphonate MICc” value (Candida tropicalis; ZOL with FLC) was 32. The “bisphosphonate MICc” value (Candida tropicalis; ZOL with ITR) was 16, the “bisphosphonate MICc” value (Candida tropicalis; ZOL with KET) was 32 and the “bisphosphonate MICc” value (Candida tropicalis; ZOL with VOR) was 1. For the same compound, the MIC [6] was 148 ± 176 µg/mL (≈ 544 µM), the “MIC / MEC” value (Trichophyton soudanense [7]) was 64 µg/mL (≈ 235 µM) and the FICI (Aspergillus niger; 5FC:ZOL) was 3. The FICI (Aspergillus niger; AMB:ZOL) was 0.98, the FICI (Aspergillus niger; CAS:ZOL) was 2 and the FICI (Aspergillus niger; FLC:ZOL) was 2. It also gave an FICI (Aspergillus niger; ITR:ZOL) of 0.56, an FICI (Aspergillus niger; KET:ZOL) of 1 and an FICI (Aspergillus niger; VOR:ZOL) of 1.02.
